Assay results: article PMC11862134 (Nature Communications, 2025)
No end group written: not given here.

Tests used:
[1] = tested on: BAM1 and BAM3 receptor; details: upon reaching the leaves, drought stress; cited from earlier work
[2] = target: GST-tagged TaCLV1-LRR (extracellular domains of TaCLV1, residues 58-668) (wheat (Triticum aestivum L.)); assay: MST

Kd [2] | Molecule | interaction with BAM1 and BAM3 receptor [1]
 | CLE25: CLE25 peptide, messenger of water deficiency from roots to leaves (RKVPNGPDPIHN; ends and bridges not checked; UniProt Q8LFL4 58-69, looked up) | interacts with and activates BAM1 and BAM3 receptor
19.4 nM | RLSPGGSNPQHH [mature TaCLE24b peptide] | 
